EP2992885A2, “METHOD FOR INHIBITING A LIVER DISEASE” (priority 2014, dated 2016)
Structures can show the parent of a compound that is named as a salt.

Tests used:
[1] = tested on: ROCK II; assay: ROCK II expression in HepG2 cells; type: cell-based
Method: HepG2 cells were treated with various concentrations of drugs for 24 hours. Reactions were terminated by washing twice with cold PBS, and the cells were then harvested. Proteins in the whole-cell lysate were homogenized in an ice-cold lysis buffer and a protease inhibitor (Sigma-Aldrich, St. Louis, MO, U.S.A.). The homogenate was centrifuged at 90, 000 g for 15 minutes at 4°C, and supernatant was recovered as the total cellular protein. Cytosolic and membrane fractions of HepG2 cells were prepared using a CNM (Cytosol Nuclear Membrane) compartment protein extraction kit (BioChain Institute Inc., Hayward, CA, U.S.A.) according to the manufacturer's instructions. All of the fractionated protein solutions were stored at -80°C until analysis. To measure the expression levels of proteins by drugs, the total cell protein was extracted after incubation with treatments for 24 hours and then Western blotting analysis was performed as described previously.
To confirm that RhoA antagonist C3 exoenzyme (5 µg/ml) and ROCK antagonist Y27632 (10 µM), dissolved in 10% popyleneglycol, can inactivate_the expression of ROCK II, they were added to cells in culture for 24 hours, respectively, to measure the expression of ROCK II and related expressions of PPARγ and ABCA-1 in HepG2 cells.

[2] = tested on: mice fed with HFD; assay: HFD-fed mice, 8 weeks: serum and liver lipid levels, body weight, food intake; type: in vivo, C57BL/6J male mice; set-up: TG / Tot. chol. / HDL chol. / LDL chol.: unit not given here; conditions: for HDL chol. / LDL chol. / TG / Tot. chol.: Table 2, HFD mice, unit not given in Table 2 (Table 1 gives mg/dl); for HDL (HDL cholesterol) / LDL (LDL cholesterol) / TG of liver (Triacylglycerol) / TG in serum (Triacylglycerol): HFD for 8 weeks; for TG in serum (Triacylglycerol): means±SE
Method: (§1) During the 2 month experiments, mice fasted for one night before the experiment was changed from a standard diet (STD) to a HFD and then the mice were randomly divided into 5 groups, including 2 control and 3 treatment groups. Six mice were used in each group. The control mice received either STD or HFD and the protection group was fed HFD with KMUP-1 HCl (2.5 and 5 mg/kg/day), simvastatin (5 mg/kg/day) or a target drug administered by gavage to assess weight gain followed by biochemical analysis. Liver from the protection group supplemented with KMUP-1 HCl (1 mg/kg/day) were used to determine the HMG CoA reductase expression.
Within 2 months, the 3 day food intake average for each animal was measured. The weight gain and plasma lipid levels of each group were determined and compared to the non-treatment control group. […] Agents used in the assays were obtained from Merck & Co. (Kenilworth, NJ, U.S.A.). Triglyceride (TG), total cholesterol, HDL cholesterol and LDL cholesterol in mouse serum were measured by methods used in the clinic. To measure the hepatic TG, isolated liver were cut into small chips.

[3] = tested on: HMG CoA reductase; assay: HFD-induced HMG CoA reductase expression in liver, 8 weeks; type: in vivo, mice; conditions: HFD 8 weeks; KMUP-1 HCl 2.5, 5 mg/kg; simvastatin 5 mg/kg, by gavage
Method: as §1, with “Liver from the protection group supplemented with KMUP-1 HCl (1 mg/kg/day) were used to determine the HMG CoA reductase expression.” left out
The obtained protein extract was boiled to a ratio of 4:1 with a sample buffer (Tris 100 mM, pH 6.8, glycerol 20%, SDS 4% and bromophenol blue 0.2%).
The blot was then incubated with anti-mouse or anti-goat IgG linked to alkaline phosphatase (1:1000) for 1 hour.

8-(p-chloro-phenylthio)guanosine-3,5-monophosphorothioate [Rp-8-pCPT-cGMPS]
ROCK II expression (Fig. 24B) ([1]; HepG2, 10µM cGMP antagonist alone): increased

Cn1c(=O)c2c(ncn2CCN2CCN(c3ccccc3Cl)CC2)n(C)c1=O [KMUP-1 HCl, 7-[2-[4-(2-chlorophenyl)piperazinyl]ethyl]-1,3-dimethylxanthine HCl complex]
HDL chol. ([2]; Dose 2.5 mg/kg): 103.6± 4.2 | LDL chol. ([2]; Dose 2.5 mg/kg): 14.2± 1.4 | TG ([2]; Dose 2.5 mg/kg): 74.5± 5.1 | Tot. chol. ([2]; Dose 2.5 mg/kg): 133± 5.1 | HDL chol. ([2]; Dose 5 mg/kg): 118.3± 5.7 | LDL chol. ([2]; Dose 5 mg/kg): 14.2± 2.2 | TG ([2]; Dose 5 mg/kg): 72.67± 4.7 | Tot. chol. ([2]; Dose 5 mg/kg): 125.5± 9.8 | HFD-induced downregulation of HMG CoA reductase expression in liver [3]: significantly reversed

Cn1c(=O)c2c(ncn2CCN2CCN(c3ccccc3Cl)CC2)n(C)c1=O [KMUP-1, 7-[2-[4-(2-chlorophenyl)piperazinyl]ethyl]-1,3-dimethyl xanthine]
HDL (HDL cholesterol) ([2]; 2.5mg/kg by gavage): 103.6 ± 4.2 mg/dL | LDL (LDL cholesterol) ([2]; 2.5mg/kg by gavage): 14.2 ± 1.4 mg/dL | TG of liver (Triacylglycerol) ([2]; 2.5mg/kg by gavage): 28.4 ± 3.6 mg/dL | TG in serum (Triacylglycerol) ([2]; 2.5mg/kg by gavage): 74.5 ± 5.1 mg/dL | HDL (HDL cholesterol) ([2]; 5mg/kg by gavage): 118.3 ± 5.7 mg/dL | LDL (LDL cholesterol) ([2]; 5mg/kg by gavage): 14.2 ± 2.2 mg/dL | TG of liver (Triacylglycerol) ([2]; 5mg/kg by gavage): 26.12 ± 3.1 mg/dL | TG in serum (Triacylglycerol) ([2]; 5mg/kg by gavage): 72.7 ± 4.7 mg/dL

C[C@@H](N)[C@H]1CC[C@H](C(=O)Nc2ccncc2)CC1 [Y27632]
ROCK II expression (Fig. 24A) ([1]; HepG2, 24 hours, C3 exoenzyme 5 µg/ml, Y27632 10 µM): reduced

CCC(C)(C)C(=O)O[C@H]1C[C@@H](C)C=C2C=C[C@H](C)[C@H](CC[C@@H]3C[C@@H](O)CC(=O)O3)[C@H]21 [simvastatin, reference compound]
HDL (HDL cholesterol) ([2]; 5mg/kg by gavage): 103.2 ± 2.5 mg/dL | LDL (LDL cholesterol) ([2]; 5mg/kg by gavage): 15.3 ± 1.3 mg/dL | TG of liver (Triacylglycerol) ([2]; 5mg/kg by gavage): 35.5±2.** mg/dl | TG in serum (Triacylglycerol) ([2]; 5mg/kg by gavage): 82.7 ± 6.3 mg/dL
